# Assay results from patent US20140314857A1, “FORMULATIONS FOR ENHANCED BIOAVAILABILITY OF ZANAMIVIR” (priority 2012, published 2014).
# Values joined by “and” are separate entries in the source; they are usually repeats but may differ in a detail not shown here. Equal values may be shown once.
# Assay: Intraduodenal bioavailability of zanamivir from glycerol and PBS formulations, enhancer pre-dose (Example 6)
# Settings: for half-life: t1/2, ID 1.5 mg/animal
# Text: Male Sprague-Dawley rats (Hilltop Labs), 3 animals per treatment group, 250-350 grams in weight, were fitted with a jugular vein cannula (JVC). Animals intended for intraduodenal dosing were also fitted with one or more intraduodenal cannula (IDC) and those intended for intravenous dosing were fitted with a second JVC. Food was withheld from the animals for a minimum of twelve hours prior to test article administration and was returned approximately four hours post-dose. Water was supplied ad libitum.
# Intraduodenal doses composed of 1.5 mg of zanamivir and varying amounts of an enhancer (glycerol or Capmul MCM L8) were injected directly into the duodenum via the IDC. Intravenous dosing was conducted by the injection of 1.5 mg of zanamivir in 200 μL of PBS through a JVC. For some experiments, the absorption enhancer was administered intraduodenally 2 hr prior to administering 1.5 mg of zanamivir in PBS through a second IDC. Each intraduodenal dose was followed with the introduction of a small air bubble (˜10 μL) in the cannula followed by a flush of 125 μL of PBS to ensure the dose was given in full. The volume of PBS used for cannula flush was consistent across the treatment groups. The cannula was tied to prevent the PBS remaining in the cannula from entering the duodenum.
# Blood samples collected via the JVC, approximately 400 μL each, were obtained at 2 min, 5 min, 15 min, 30 min, 60 min, 90 min, and 120 min, with sodium heparin used as an anti-coagulant. Each sample was placed into a chilled tube containing the anticoagulant and kept on ice until centrifugation at 4° C., 3,000×g, for 5 min. The plasma supernatants were stored at −70° C. until LC-MS analysis.
# Dosing solution samples were assayed by LC-MS/MS using electrospray ionization. The chromatographic system consisted of Perkin Elmer series 200 micropumps and autosampler equipped with a Waters Atlantic® HILIC Silica 3 μM, 2.1×50 mm column. The mass spectrometer was a PE Sciex API 4000 with electrospray interface in multiple reaction monitoring mode. […] Stock solutions (1 mg/mL zanamivir) were prepared in water. Standards (eight concentrations) were prepared in the appropriate matched matrix (HBSSg or Sprague-Dawley rat plasma containing sodium heparin) and diluted 50-fold with methanol. Experimental samples were treated identically.
# Standards and samples were prepared in Sprague Dawley rat plasma containing sodium heparin as an anticoagulant. An eight-point calibration curve was prepared at concentrations of 1000, 750, 500, 250, 100, 50, 25, and 10 ng/mL by serial dilution. Standard samples were treated identically to the study samples.
# Plasma samples were extracted by protein precipitation in methanol.
# In this example, the bioavailability of Zanamivir was evaluated after intraduodenal doses in male Sprague-Dawley rats. The test compound was dosed at 1.5 mg/animal through intraduodenal routes from glycerol and PBS formulations. Plasma levels were determined by LC-MS/MS analysis. Pharmacokinetic parameters were estimated by a non-compartmental model using WinNonlin v5.2.1 software.
smiles,measurement,setting,value
"CC(=O)NC1C(NC(=N)N)C=C(C(=O)O)OC1C(O)C(O)CO (centres unmarked) [Zanamivir, 5-acetamido-4-guanidino-6-(1,2,3-trihydroxypropyl)-5,6-dihydro-4H-pyran-2-carboxylic acid]",Plasma concentration,"ID 1.5 mg/animal, 50 µL PBS, 50 µL blank Capmul MCM L8 -2 hr, 0.25 hr, individual rats",27.1 ng/mL and 28.1 ng/mL
same,Plasma concentration,"ID 1.5 mg/animal, 50 µL PBS, 50 µL blank Capmul MCM L8 -2 hr, 0.5 hr, individual rats",34.5 ng/mL and 42.9 ng/mL
same,Plasma concentration,"ID 1.5 mg/animal, 50 µL PBS, 50 µL blank Capmul MCM L8 -2 hr, 0.83 hr, individual rats",18.1 ng/mL and 8.00 ng/mL and 6.27 ng/mL
same,Plasma concentration,"ID 1.5 mg/animal, 50 µL PBS, 50 µL blank Capmul MCM L8 -2 hr, 1.0 hr, individual rats",33.1 ng/mL and 32.1 ng/mL
same,Plasma concentration,"ID 1.5 mg/animal, 50 µL PBS, 50 µL blank Capmul MCM L8 -2 hr, 1.5 hr, individual rats",61.5 ng/mL and 23.2 ng/mL and 31.4 ng/mL
same,Plasma concentration,"ID 1.5 mg/animal, 50 µL PBS, 50 µL blank Capmul MCM L8 -2 hr, 2.0 hr, individual rats",68.3 ng/mL and 14.8 ng/mL and 18.2 ng/mL
same,Tmax,"ID 1.5 mg/animal, 50 µL PBS, 50 µL blank Capmul MCM L8 -2 hr, individual rats",2.00 h
same,Plasma concentration,"ID 1.5 mg/animal, 50 µL PBS, 150 µL blank glycerol -2 hr, 0.25 hr, individual rats",65.2 ng/mL and 28.9 ng/mL and 61.2 ng/mL
same,Plasma concentration,"ID 1.5 mg/animal, 50 µL PBS, 150 µL blank glycerol -2 hr, 0.5 hr, individual rats",40.1 ng/mL and 72.3 ng/mL
same,Plasma concentration,"ID 1.5 mg/animal, 50 µL PBS, 150 µL blank glycerol -2 hr, 0.83 hr, individual rats",22.7 ng/mL and 1.47 ng/mL and 48.9 ng/mL
same,Plasma concentration,"ID 1.5 mg/animal, 50 µL PBS, 150 µL blank glycerol -2 hr, 1.0 hr, individual rats",39.8 ng/mL and 38.4 ng/mL
same,Plasma concentration,"ID 1.5 mg/animal, 50 µL PBS, 150 µL blank glycerol -2 hr, 1.5 hr, individual rats",45.8 ng/mL and 34.5 ng/mL
same,Plasma concentration,"ID 1.5 mg/animal, 50 µL PBS, 150 µL blank glycerol -2 hr, 2.0 hr, individual rats, BLOQ = below 10 ng/mL",54.8 ng/mL
same,Tmax,"ID 1.5 mg/animal, 50 µL PBS, 150 µL blank glycerol -2 hr, individual rats",1.50 h
same,Plasma concentration,"ID 1.5 mg/animal, 100 µL Glycerol, 0.25 hr, individual rats",76.4 ng/mL and 40.7 ng/mL
same,Plasma concentration,"ID 1.5 mg/animal, 100 µL Glycerol, 0.5 hr, individual rats",59.2 ng/mL and 35.6 ng/mL
same,Plasma concentration,"ID 1.5 mg/animal, 100 µL Glycerol, 0.83 hr, individual rats",55.4 ng/mL and 78.4 ng/mL and 37.5 ng/mL
same,Plasma concentration,"ID 1.5 mg/animal, 100 µL Glycerol, 1.0 hr, individual rats",55.3 ng/mL and 39.4 ng/mL
same,Plasma concentration,"ID 1.5 mg/animal, 100 µL Glycerol, 1.5 hr, individual rats",29.6 ng/mL and 47.6 ng/mL and 63.5 ng/mL
same,Plasma concentration,"ID 1.5 mg/animal, 100 µL Glycerol, 2.0 hr, individual rats",30.8 ng/mL and 37.4 ng/mL and 94.5 ng/mL
same,Tmax,"ID 1.5 mg/animal, 100 µL Glycerol, individual rats",2.00 h
same,t1/2,"ID 1.5 mg/animal, 100 µL Glycerol, mean (n = 1)",1.77 h
same,Plasma concentration,"ID 1.5 mg/animal, 150 µL Glycerol, 0.25 hr, individual rats",57.9 ng/mL and 96.3 ng/mL
same,Plasma concentration,"ID 1.5 mg/animal, 150 µL Glycerol, 0.5 hr, individual rats",919 ng/mL and 57.8 ng/mL and 55.9 ng/mL
same,Plasma concentration,"ID 1.5 mg/animal, 150 µL Glycerol, 0.83 hr, individual rats",72.7 ng/mL and 108 ng/mL
same,Plasma concentration,"ID 1.5 mg/animal, 150 µL Glycerol, 1.0 hr, individual rats",60.6 ng/mL and 36.6 ng/mL
same,Plasma concentration,"ID 1.5 mg/animal, 150 µL Glycerol, 1.5 hr, individual rats",46.8 ng/mL and 46.9 ng/mL and 16.0 ng/mL
same,Plasma concentration,"ID 1.5 mg/animal, 150 µL Glycerol, 2.0 hr, individual rats",37.7 ng/mL and 33.4 ng/mL and 16.7 ng/mL
same,"tmax (second line so headed, Table 10)","ID 1.5 mg/animal, 150 µL Glycerol, individual rats",1.16 h
same,half-life,"male, Sprague-Dawley, rat, in vivo, 1.5 mg, 50 µL PBS, 50 µL blank Capmul MCM L8 -2 hr, individual rats",0.86 h
same,half-life,"male, Sprague-Dawley, rat, in vivo, 1.5 mg, 50 µL PBS, 50 µL blank Capmul MCM L8 -2 hr, mean (n = 1)",0.86 h
same,half-life,"male, Sprague-Dawley, rat, in vivo, 1.5 mg, 100 µL Glycerol, individual rats",1.77 h
same,half-life,"male, Sprague-Dawley, rat, in vivo, 1.5 mg, 100 µL Glycerol, mean (n = 1)",1.77 h
same,half-life,"male, Sprague-Dawley, rat, in vivo, 1.5 mg, 150 µL Glycerol, mean (n = 2)",1.63 h
same,Tmax,"male, Sprague-Dawley, rat, in vivo, 1.5 mg, tmax (second line so headed, Table 10), ID 1.5 mg/animal, 150 µL Glycerol, individual rats",2.09 h
same,Tmax,"male, Sprague-Dawley, rat, in vivo, 1.5 mg, tmax (second line so headed, Table 10), ID 1.5 mg/animal, 150 µL Glycerol, mean",1.63 h
same,Tmax,"male, Sprague-Dawley, rat, in vivo, 1.5 mg, tmax, ID 1.5 mg/animal, 50 µL PBS, 50 µL blank Capmul MCM L8 -2 hr, mean",1 h
same,Tmax,"male, Sprague-Dawley, rat, in vivo, 1.5 mg, tmax, ID 1.5 mg/animal, 50 µL PBS, 150 µL blank glycerol -2 hr, mean",0.75 h
